For the assay, the target named is T1, human iNOS (Homo sapiens, UniProt P35228).
T1 construct: expressed in transfected cells; host or cells: HEK293
In words: DAN assay of nitric oxide production (hiNOS). Particulars: enzyme expressed in HEK293 cells transiently transfected with human iNOS. Type of assay: cell-based. In short, it runs like this: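 Human iNOS transiently expressed in HEK293 cells; NO production quantified as nitrite via 2,3-diaminonaphthalene reaction forming fluorescent naphthotriazole.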

T1 sequence (P35228 whole entry): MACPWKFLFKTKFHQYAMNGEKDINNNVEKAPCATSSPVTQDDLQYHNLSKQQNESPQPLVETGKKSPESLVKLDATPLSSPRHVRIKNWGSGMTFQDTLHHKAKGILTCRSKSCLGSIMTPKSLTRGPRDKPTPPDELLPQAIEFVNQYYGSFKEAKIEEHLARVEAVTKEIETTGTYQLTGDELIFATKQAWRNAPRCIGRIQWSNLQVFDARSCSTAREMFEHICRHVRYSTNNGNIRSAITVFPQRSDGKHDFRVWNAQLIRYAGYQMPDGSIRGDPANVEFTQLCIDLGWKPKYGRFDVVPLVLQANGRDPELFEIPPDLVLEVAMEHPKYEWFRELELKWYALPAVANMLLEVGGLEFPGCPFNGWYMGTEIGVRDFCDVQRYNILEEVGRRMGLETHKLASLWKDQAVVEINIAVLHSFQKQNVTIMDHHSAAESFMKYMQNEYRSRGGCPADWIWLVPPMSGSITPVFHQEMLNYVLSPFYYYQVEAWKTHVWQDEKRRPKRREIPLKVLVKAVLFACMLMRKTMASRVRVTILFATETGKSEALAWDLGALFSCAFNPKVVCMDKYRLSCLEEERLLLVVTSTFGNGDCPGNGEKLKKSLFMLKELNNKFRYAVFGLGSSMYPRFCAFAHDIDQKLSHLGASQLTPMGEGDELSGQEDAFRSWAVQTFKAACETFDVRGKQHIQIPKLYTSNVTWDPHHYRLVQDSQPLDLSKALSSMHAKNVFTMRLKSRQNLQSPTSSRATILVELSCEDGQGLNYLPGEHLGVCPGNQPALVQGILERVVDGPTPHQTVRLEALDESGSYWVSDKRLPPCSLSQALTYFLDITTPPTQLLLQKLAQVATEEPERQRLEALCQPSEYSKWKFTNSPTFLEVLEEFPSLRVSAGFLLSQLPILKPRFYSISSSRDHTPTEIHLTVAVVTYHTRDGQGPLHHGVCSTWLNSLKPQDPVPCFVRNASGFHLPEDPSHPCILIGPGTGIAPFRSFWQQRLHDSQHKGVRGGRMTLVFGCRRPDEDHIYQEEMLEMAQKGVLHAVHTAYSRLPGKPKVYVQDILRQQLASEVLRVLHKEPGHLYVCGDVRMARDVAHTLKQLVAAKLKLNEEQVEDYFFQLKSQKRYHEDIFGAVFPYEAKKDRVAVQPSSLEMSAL

By EC50 is commonly meant the midpoint of the concentration-response curve. A high value points to a need for much substance. The compound `Cc1ccccc1Cc1nc2ccccc2n1Cc1cc(=O)[nH]c2c(F)c(F)ccc12` [Example 216, 7,8-Difluoro-4-((2-(2-methylbenzyl)-1H-benzo[d]imidazol-1-yl)methyl)quinolin-2(1H)-one] had an EC50 of over 5 µM.

As for `COc1cccc(N(Cc2cc(=O)[nH]c3c(F)cccc23)C(=O)c2scnc2C)c1` [Example 262, N-((8-Fluoro-2-oxo-1,2-dihydroquinolin-4-yl)methyl)-N-(3-methoxyphenyl)-4-methylthiazole-5-carboxamide], the concentration for a half-maximal effect (EC50) was at most 5 µM.

Regarding `CC(C)S(=O)(=O)N(Cc1cc(=O)[nH]c2c(F)c(F)ccc12)c1cccc(Cl)c1` [Example 188, N-(3-Chlorophenyl)-N-((7,8-difluoro-2-oxo-1,2-dihydroquinolin-4-yl)methyl)propane-2-sulfonamide], the EC50 was at most 5 µM.

The compound `O=c1cc(Cn2c(C3CCC3)nc3ccccc32)c2ccc(F)c(F)c2[nH]1` [Example 207, 4-((2-Cyclobutyl-1H-benzo[d]imidazol-1-yl)methyl)-7,8-difluoroquinolin-2(1H)-one] showed an EC50 of at most 5 µM.

`Cc1ncsc1C(=O)N(Cc1cc(=O)[nH]c2cc(F)ccc12)c1cccc(Cl)c1` [Example 51, N-(3-Chlorophenyl)-N-((7-fluoro-2-oxo-1,2-dihydroquinolin-4-yl)methyl)-4-methylthiazole-5-carboxamide]: the EC50 was over 5 µM.

Take `O=c1cc(Cn2c(-c3ccncc3Cl)nc3ccccc32)c2ccc(F)c(F)c2[nH]1` [Example 248, 4-((2-(3-Chloropyridin-4-yl)-1H-benzo[d]imidazol-1-yl)methyl)-7,8-difluoroquinolin-2(1H)-one]: the EC50 is at most 5 µM.

In turn, `Cc1ncsc1C(=O)N(Cc1cc(=O)[nH]c2ccccc12)c1ccccc1` [Example 29, 4-Methyl-N-((2-oxo-1,2-dihydroquinolin-4-yl)methyl)-N-phenylthiazole-5-carboxamide] yielded an EC50 of over 5 µM.

`O=C(c1ccco1)N(Cc1cc(=O)[nH]c2ccc(F)cc12)c1ccccc1` [Example 18, N-((6-Fluoro-2-oxo-1,2-dihydroquinolin-4-yl)methyl)-N-phenylfuran-2-carboxamide] displayed an EC50 of over 5 µM.

The compound `Cc1c(-c2ccccc2)nc(C(C)C)n1Cc1cc(=O)[nH]c2c(F)c(F)ccc12` [Example 258, 7,8-Difluoro-4-((2-isopropyl-5-methyl-4-phenyl-1H-imidazol-1-yul)methyl)quinolin-2(1H)-one] yielded a half-maximal effective concentration (EC50) of over 5 µM.

`Cn1nccc1C(=O)N(Cc1cc(=O)[nH]c2c(F)c(F)ccc12)c1cccc(Cl)c1` [Example 112, N-(3-Chlorophenyl)-N-((7,8-difluoro-2-oxo-1,2-dihydroquinolin-4-yl)methyl)-1-methyl-1H-pyrazole-5-carboxamide] displayed an EC50 of over 5 µM.

`Cc1ncsc1C(=O)N(Cc1cc(=O)[nH]c2c(F)cccc12)c1ccc(F)c(F)c1` [Example 92, N-(3,4-Difluorophenyl)-N-((8-fluoro-2-oxo-1,2-dihydroquinolin-4-yl)methyl)-4-methylthiazole-5-carboxamide]: the EC50 was at most 5 µM.

On to `CN(C)c1ccc(C(=O)N(Cc2cc(=O)[nH]c3c(F)cccc23)c2cccc(Cl)c2)cc1` [Example 76, N-(3-Chlorophenyl)-4-(dimethylamino)-N-((8-fluoro-2-oxo-1,2-dihydroquinolin-4-yl)methyl)benzamide], for which the EC50 was over 5 µM.

The compound `O=c1cc(Cn2c(C3CCCO3)nc3ccccc32)c2ccc(F)c(F)c2[nH]1` (racemic) [Example 250, 7,8-Difluoro-4-((2-(tetrahydrofuran-2-yl)-1H-benzo[d]imidazol-1-yl)methyl)quinolin-2(1H)-one] showed an EC50 of at most 5 µM.

In turn, `O=C(c1cscn1)N(Cc1cc(=O)[nH]c2ccccc12)c1ccccc1` [Example 28, N-((2-Oxo-1,2-dihydroquinolin-4-yl)methyl)-N-phenylthiazole-4-carboxamide] showed a half-maximal effective concentration (EC50) of over 5 µM.

On to `O=c1cc(Cn2c(Cn3ccnc3)nc3ccccc32)c2ccc(F)c(F)c2[nH]1` [Example 251, 4-((2-((1H-Imidazol-1-yl)methyl)-1H-benzo[d]imidazol-1-yl)methyl)-7,8-difluoroquinolin-2(1H)-one], for which the EC50 was over 5 µM.

Regarding `O=C(c1ccncc1)N(Cc1cc(=O)[nH]c2ccccc12)c1ccccc1` [Example 34, N-((2-Oxo-1,2-dihydroquinolin-4-yl)methyl)-N-phenylisonicotinamide], the EC50 was over 5 µM.

Turning to `Cc1ncsc1C(=O)N(Cc1cc(=O)[nH]c2c(F)ccc(F)c12)c1cccc(Cl)c1` [Example 52, N-(3-Chlorophenyl)-N-((5,8-difluoro-2-oxo-1,2-dihydroquinolin-4-yl)methyl)-4-methylthiazole-5-carboxamide], the EC50 is over 5 µM.

The compound `O=C(c1cnccn1)N(Cc1cc(=O)[nH]c2c(F)cccc12)c1cccc(Cl)c1` [Example 70, N-(3-Chlorophenyl)-N-((8-fluoro-2-oxo-1,2-dihydroquinolin-4-yl)methyl)pyrazine-2-carboxamide] came in with an EC50 of over 5 µM.

`CC(C)c1nc2ccn(Cc3cc(=O)[nH]c4c(F)c(F)ccc34)cc-2n1` [Example 230, 7,8-Difluoro-4-((2-isopropyl-5H-imidazo[4,5-c]pyridin-5-yl)methyl)quinolin-2(1H)-one]: the EC50 is over 5 µM.

In the case of `Cc1ncsc1C(=O)N(Cc1cc(=O)[nH]c2c(F)cccc12)C1CC1` [Example 87, N-Cyclopropyl-N-((8-fluoro-2-oxo-1,2-dihydroquinolin-4-yl)methyl)-4-methylthiazole-5-carboxamide], the half-maximal effective concentration (EC50) is over 5 µM.

As to `O=C(c1ccc2ccccc2c1)N(Cc1cc(=O)[nH]c2c(F)cccc12)c1cccc(Cl)c1` [Example 83, N-(3-Chlorophenyl)-N-((8-fluoro-2-oxo-1,2-dihydroquinolin-4-yl)methyl)-2-naphthamide], the EC50 was over 5 µM.

In turn, `Cc1nc(N(C)C)sc1C(=O)N(Cc1cc(=O)[nH]c2ccccc12)c1ccccc1` [Example 100, 2-(Dimethylamino)-4-methyl-N-((2-oxo-1,2-dihydroquinolin-4-yl)methyl)-N-phenylthiazole-5-carboxamide] had an EC50 of at most 5 µM.

Compound `Cc1ccncc1C(=O)N(Cc1cc2cccc(F)c2[nH]c1=O)c1cccc(Cl)c1` [Example 172, N-(3-Chlorophenyl)-N-((8-fluoro-2-oxo-1,2-dihydroquinolin-3-yl)methyl)-4-methylnicotinamide] gave an EC50 of over 5 µM.

As for `Cc1cccc(C)c1-c1nc2ccccc2n1Cc1cc(=O)[nH]c2c(F)c(F)ccc12` [Example 246, 4-((2-(2,6-Dimethylphenyl)-1H-benzo[d]imidazol-1-yl)methyl)-7,8-difluoroquinolin-2(1H)-one], the EC50 was over 5 µM.

As for `Cc1ncsc1C(=O)N(Cc1cc(=O)[nH]c2c(F)c(F)ccc12)c1cccc(Cl)c1` [Example 53, N-(3-Chlorophenyl)-N-((7,8-difluoro-2-oxo-1,2-dihydroquinolin-4-yl)methyl)-4-methylthiazole-5-carboxamide], the EC50 was at most 5 µM.

For the compound `CC(C)Cc1nc2ccccc2n1Cc1cc(=O)[nH]c2c(F)c(F)ccc12` [Example 195, 7,8-Difluoro-4-((2-isobutyl-1H-benzo[d]imidazol-1-yl)methyl)quinolin-2(1H)-one], the EC50 was at most 5 µM.

The compound `Cc1ccncc1-c1nc2ccccc2n1Cc1cc(=O)[nH]c2c(F)c(F)ccc12` [Example 121, 7,8-Difluoro-4-((2-(4-methylpyridin-3-yl)-1H-benzo[d]imidazol-1-yl)methyl)quinolin-2(1H)-one] displayed an EC50 of over 5 µM.

`Cc1ccc(N(Cc2cc(=O)[nH]c3c(F)c(F)ccc23)C(=O)c2scnc2C)cc1Cl` [Example 177, N-(3-Chloro4-methylphenyl)-N-((7,8-fluoro-2-oxo-1,2-dihydroquinolin-4-yl)methyl)-4-methylthiazole-5-carboxamide] yielded an EC50 of at most 5 µM.

For `O=C(c1ccc(F)cc1)N(Cc1cc(=O)[nH]c2c(F)cccc12)c1cccc(Cl)c1` [Example 56, N-(3-Chlorophenyl)-4-fluoro-N-((8-fluoro-2-oxo-1,2-dihydroquinolin-4-yl)methyl)benzamide], the EC50 was over 5 µM.

In the case of `COc1ccc(N(Cc2cc(=O)[nH]c3c(F)c(F)ccc23)C(=O)c2scnc2C)cc1Cl` [Example 176, N-(3-Chloro4-methoxylphenyl)-N-((7,8-fluoro-2-oxo-1,2-dihydroquinolin-4-yl)methyl)-4-methylthiazole-5-carboxamide], the EC50 is at most 5 µM.

Compound `Cc1ncsc1C(=O)N(Cc1cc(=O)[nH]c2cc(F)c(F)cc12)c1cccc(Cl)c1` [Example 109, N-(3-Chlorophenyl)-N-((6,7-difluoro-2-oxo-1,2-dihydroquinolin-4-yl)methyl)-4-methylthiazole-5-carboxamide] gave a concentration giving a half-maximal response (EC50) of at most 5 µM.

For `CCCc1nc2ccccc2n1Cc1cc(=O)[nH]c2c(F)c(F)ccc12` [Example 219, 7,8-Difluoro-4-((2-propyl-1H-benzo[d]imidazol-1-yl)methyl)quinolin-2(1H)-one], the EC50 was at most 5 µM.

Consider `O=c1cc(Cn2c(CCC3CCCCC3)nc3ccccc32)c2ccc(F)c(F)c2[nH]1` [Example 213, 4-((2-(2-Cyclohexylethyl)-1H-benzo[d]imidazol-1-yl)methyl)-7,8-difluoroquinolin-2(1H)-one], for which the EC50 is over 5 µM.

The compound `Cc1oncc1C(=O)N(Cc1cc2cccc(F)c2[nH]c1=O)c1cccc(Cl)c1` [Example 173, N-(3-Chlorophenyl)-N-((8-fluoro-2-oxo-1,2-dihydroquinolin-3-yl)methyl)-5-methylisoxazole-4-carboxamide] gave a 50% effective concentration (EC50) of over 5 µM.

The compound `Cc1cccc2c1nc(CC(C)C)n2Cc1cc(=O)[nH]c2c(F)c(F)ccc12` [Example 225, 7,8-Difluoro-4-((2-isobutyl-4-methyl-1H-benzo[d]imidazol-1-yl)methyl)quinolin-2(1H)-one] yielded an EC50 of at most 5 µM.

Compound `CCc1nc2ccccc2n1Cc1cc(=O)[nH]c2c(F)c(F)ccc12` [Example 221, 7,8-Difluoro-4-((2-ethyl-1H-benzo[d]imidazol-1-yl)methyl)quinolin-2(1H)-one] showed an EC50 of at most 5 µM.

The record behind these values is US20080139558A1, “QUINOLONES USEFUL AS INDUCIBLE NITRIC OXIDE SYNTHASE INHIBITORS” (KALYPSYS, INC., priority 2006, published 2008).
